pIC50: −log10 of the molar value. Bounds are passed on as bounds.

For 16 compounds, IC50 results are on record in patent US9199962B2, “Substituted azaheterocycles for the treatment of cancer” (Merck Patent GmbH, priority 2011, dated 2015).

For the first assay, the target named is T1, GST-FAK (N-terminal GST fusion with truncated human FAK (376-1052 (end) amino acids)) (Homo sapiens, UniProt Q05397).
T1 construct: truncated human FAK (376-1052 (end) amino acids)
T1 sequence (Q05397 376-1052): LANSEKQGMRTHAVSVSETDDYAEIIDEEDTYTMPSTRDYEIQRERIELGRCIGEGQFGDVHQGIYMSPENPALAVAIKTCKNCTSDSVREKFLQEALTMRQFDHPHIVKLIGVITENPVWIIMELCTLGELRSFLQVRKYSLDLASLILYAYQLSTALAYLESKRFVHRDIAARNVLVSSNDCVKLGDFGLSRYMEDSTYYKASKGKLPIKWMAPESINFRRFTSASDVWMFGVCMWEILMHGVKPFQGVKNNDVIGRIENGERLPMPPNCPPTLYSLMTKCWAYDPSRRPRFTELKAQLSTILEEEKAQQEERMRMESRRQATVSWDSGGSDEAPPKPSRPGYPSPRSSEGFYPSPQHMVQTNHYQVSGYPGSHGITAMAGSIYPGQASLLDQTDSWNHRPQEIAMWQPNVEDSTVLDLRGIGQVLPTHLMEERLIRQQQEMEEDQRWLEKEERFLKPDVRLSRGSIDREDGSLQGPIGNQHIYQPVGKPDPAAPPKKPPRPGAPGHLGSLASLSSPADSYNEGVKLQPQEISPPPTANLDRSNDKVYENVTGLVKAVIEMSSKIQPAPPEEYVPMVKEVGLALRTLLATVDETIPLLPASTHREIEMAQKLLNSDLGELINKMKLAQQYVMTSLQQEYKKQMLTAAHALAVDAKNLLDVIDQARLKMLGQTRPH
The experiment in a line: Biochemical enzyme assay for FAK activity (Caliper LC3000 mobility shift). Conditions: Table 1; 100 uM ATP; read-out: FAK IC50. The gist of the method: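 Inhibitor dose series in DMSO were incubated 90 min at 25 °C with truncated GST-tagged human FAK (0.067 ng/µl) and FITC-labelled peptide substrate (1 µM), with ATP at 100 µM and FERM peptide at 1 mM (pH 7.5 HEPES). After EDTA quench, phosphorylated and unphosphorylated peptides were resolved electrophoretically. Percent conversion was fitted for IC50.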
The term pIC50 denotes the negative decadic logarithm of the IC50, by convention in mol/L. Turning to `COc1ccc(CNc2ccnc(-c3cncc(C(F)(F)F)c3)n2)c(F)c1F` [Compound 24, (2,3-Difluoro-4-methoxy-benzyl)-[2-(5-trifluoromethyl-pyridin-3-yl)-pyrimidin-4-yl]-amine], the pIC50 is 5.00 to 6.00.
Same read-out and setting: the same measure for `O=C(c1cncc(-c2nccc(NCc3ccc(Oc4ccc(F)cc4)cc3)n2)c1)N1CCOCC1` [Compound 13, (5-{4-[4-(4-Fluoro-phenoxy)-benzylamino]-pyrimidin-2-yl}-pyridin-3-yl)-morpholin-4-yl-methanone]: under 5.00; for `Fc1ccccc1CNc1ccnc(-c2cncc(Cl)c2)n1` [Compound 38, [2-(5-Chloro-pyridin-3-yl)-pyrimidin-4-yl]-(2-fluoro-benzyl)-amine]: over 7.00; for `Clc1cncc(-c2nccc(NCC3CC3)n2)c1` [Compound 36, [2-(5-Chloro-pyridin-3-yl)-pyrimidin-4-yl]-cyclopropylmethyl-amine]: 5.00 to 6.00.
On to `Clc1cncc(-c2nccc(NCC3CCCCC3)n2)c1` [Compound 37, [2-(5-Chloro-pyridin-3-yl)-pyrimidin-4-yl]-cyclohexylmethyl-amine], for which the pIC50 is 5.00 to 6.00.
As to `FC(F)(F)c1cncc(-c2nccc(NCc3ccc(N4CCOCC4)cc3)n2)c1` [Compound 28, (4-Morpholin-4-yl-benzyl)-[2-(5-trifluoromethyl-pyridin-3-yl)-pyrimidin-4-yl]-amine], the negative logarithm of the IC50 (pIC50) was under 5.00.

Still in this assay, the particulars now being: Table 3; 100 uM ATP; read-out: FAK IC50.
In the case of `Nc1ncccc1-c1nccc(NCc2cccc3nsnc23)n1` [Compound 117, 2-(2-Aminopyridin-3-yl)-N-(2,1,3-benzothiadiazol-4-ylmethyl)pyrimidin-4-amine], the negative-log IC50 (pIC50) is 6.00 to 7.00.
On to `Nc1ncccc1-c1cccc(NCc2ccccc2C(F)(F)F)c1` [Compound 104, 3-(3-{[2-(Trifluoromethyl)benzyl]amino}phenyl)pyridin-2-amine], for which the pIC50 was under 5.00.

Still in this assay, the particulars now being: Table 5; 100 uM ATP; read-out: FAK IC50.
On to `COc1cncc(-c2nccc(NCc3ccccc3-c3ccccc3S(C)(=O)=O)n2)c1` [Compound 193, (2′-Methanesulfonyl-biphenyl-2-ylmethyl)-[2-(5-methoxy-pyridin-3-yl)-pyrimidin-4-yl]-amine], for which the negative logarithm of the IC50 (pIC50) was under 5.00.
Consider `CS(=O)(=O)Nc1cccc(-c2nccc(NCc3ccc(F)cc3C(F)(F)F)n2)c1` [Compound 245, N-{3-[4-(4-Fluoro-2-trifluoromethyl-benzylamino)-pyrimidin-2-yl]-phenyl}-methanesulfonamide], for which the pIC50 was under 5.00.
As to `CNC(=O)c1ccccc1Nc1ccnc(-c2cncc(C(F)(F)F)c2)n1` [Compound 256, N-Methyl-2-[2-(5-trifluoromethyl-pyridin-3-yl)-pyrimidin-4-ylamino]-benzamide], the pIC50 was under 5.00.
Turning to `Cn1cc(NC(=O)c2cc(NCc3ccc(F)cc3F)nc(-c3cncc(C(F)(F)F)c3)n2)cn1` [Compound 246, 6-(2,4-Difluoro-benzylamino)-2-(5-trifluoromethyl-pyridin-3-yl)-pyrimidine-4-carboxylic acid (1-methyl-1H-pyrazol-4-yl)-amide], the pIC50 was 6.00 to 7.00.
Take `Fc1ccc(CNc2nccc(-c3cncc(C(F)(F)F)c3)n2)c(F)c1` [Compound 248, (2,4-Difluoro-benzyl)-[4-(5-trifluoromethyl-pyridin-3-yl)-pyrimidin-2-yl]-amine]: the pIC50 is over 7.00.
`FC(F)(F)c1cncc(-c2nccc(NCc3ccccn3)n2)c1` [Compound 219, Pyridin-2-ylmethyl-[2-(5-trifluoromethyl-pyridin-3-yl)-pyrimidin-4-yl]-amine]: the pIC50 is 6.00 to 7.00.
Turning to `Cc1ccccc1CNc1ccnc(-c2cncc(C(F)(F)F)c2)n1` [Compound 186, (2-Methyl-benzyl)-[2-(5-trifluoromethyl-pyridin-3-yl)-pyrimidin-4-yl]-amine], the negative-log IC50 (pIC50) is 6.00 to 7.00.
The same measure, in the same setting: the same measure for `CS(=O)(=O)N1CCOC(CNc2ccnc(-c3cncc(C(F)(F)F)c3)n2)C1` (stereo not shown) [Compound 249, (4-Methanesulfonyl-morpholin-2-ylmethyl)-[2-(5-trifluoromethyl-pyridin-3-yl)-pyrimidin-4-yl]-amine]: 5.00 to 6.00.
